Measured values: the NIST ThermoML archive (doi:10.1016/j.jct.2015.05.014)
Numbers after ± are expanded uncertainties.

Assay: activity coefficient (dimensionless); of the first substance listed, at infinite dilution; xn = mol fraction of the nth substance listed
Conditions: 100 kPa, Liquid, Chromatography, x1 = 0

activity coefficient (308.15 K) | activity coefficient (318.15 K) | activity coefficient (328.15 K) | activity coefficient (338.15 K) | activity coefficient (348.15 K) | activity coefficient (358.15 K) | activity coefficient (368.15 K) | activity coefficient (378.15 K) | activity coefficient (388.15 K) | activity coefficient (398.15 K) | activity coefficient (408.15 K) | SMILES
518 ± 45 | 474 ± 41 | 423 ± 37 | 389 ± 34 | 358 ± 31 | 326 ± 28 | 297 ± 26 | – | – | – | – | CCCCCCCCC [nonane] + CC(O)C(=O)[O-].CC[N+]1(C)CCCC1
27.9 ± 2.4 | 27.8 ± 2.4 | 27.3 ± 2.4 | 26.8 ± 2.3 | 26.3 ± 2.3 | 26.1 ± 2.3 | 25.8 ± 2.2 | – | – | – | – | CCC(C)(C)OC [2-methoxy-2-methylbutane] + CC(O)C(=O)[O-].CC[N+]1(C)CCCC1
95.8 ± 8.3 | 88.7 ± 7.7 | 82.1 ± 7.1 | 77.2 ± 6.7 | 72.6 ± 6.3 | 68 ± 5.9 | 63.9 ± 5.5 | – | – | – | – | C1CCCCCCC1 [cyclooctane] + CC(O)C(=O)[O-].CC[N+]1(C)CCCC1
– | – | – | – | – | 0.236 ± 0.032 | 0.256 ± 0.033 | 0.277 ± 0.034 | 0.302 ± 0.035 | 0.327 ± 0.036 | 0.349 ± 0.037 | CCCO [propan-1-ol] + CC(O)C(=O)[O-].CC[N+]1(C)CCCC1
13.6 ± 1.2 | 14.2 ± 1.2 | 14.7 ± 1.3 | 15.5 ± 1.3 | 16 ± 1.4 | 16.6 ± 1.4 | 17.1 ± 1.5 | – | – | – | – | C#CCCCCCC [1-octyne] + CC(O)C(=O)[O-].CC[N+]1(C)CCCC1
– | 4.84 ± 0.42 | 4.93 ± 0.43 | 5.05 ± 0.44 | 5.14 ± 0.44 | 5.22 ± 0.45 | 5.35 ± 0.46 | – | – | – | – | CCC(=O)CC [pentan-3-one] + CC(O)C(=O)[O-].CC[N+]1(C)CCCC1
8.33 ± 0.72 | 8.83 ± 0.76 | 9.25 ± 0.8 | 9.82 ± 0.85 | 10.3 ± 0.9 | 10.7 ± 0.9 | 11.2 ± 1 | – | – | – | – | C#CCCCCC [1-heptyne] + CC(O)C(=O)[O-].CC[N+]1(C)CCCC1
87.4 ± 7.6 | 80.7 ± 7 | 75 ± 6.5 | 69.7 ± 6 | 65.7 ± 5.7 | 61.8 ± 5.3 | 57.8 ± 5 | – | – | – | – | CC1CCCCC1 [methylcyclohexane] + CC(O)C(=O)[O-].CC[N+]1(C)CCCC1
56 ± 4.8 | 53.3 ± 4.6 | 50.9 ± 4.4 | 48.7 ± 4.2 | 46.6 ± 4 | 44.7 ± 3.9 | 42.9 ± 3.7 | – | – | – | – | C=CCCCC [hex-1-ene] + CC(O)C(=O)[O-].CC[N+]1(C)CCCC1
– | 4.7 ± 0.41 | 4.78 ± 0.41 | 4.85 ± 0.42 | 4.93 ± 0.43 | 5.01 ± 0.43 | 5.14 ± 0.44 | – | – | – | – | CCCC(C)=O [pentan-2-one] + CC(O)C(=O)[O-].CC[N+]1(C)CCCC1
270 ± 23 | 242 ± 21 | 220 ± 19 | 201 ± 17 | 187 ± 16 | 173 ± 15 | 161 ± 14 | – | – | – | – | CC(C)CC(C)(C)C [2,2,4-trimethylpentane] + CC(O)C(=O)[O-].CC[N+]1(C)CCCC1
69.7 ± 6 | 64.6 ± 5.6 | 60.3 ± 5.2 | 57 ± 4.9 | 53.8 ± 4.7 | 51 ± 4.4 | 47.8 ± 4.1 | – | – | – | – | C1CCCCCC1 [cycloheptane] + CC(O)C(=O)[O-].CC[N+]1(C)CCCC1

The next lines start with the compound.

SMILES | activity coefficient (308.15 K) | activity coefficient (318.15 K) | activity coefficient (328.15 K) | activity coefficient (338.15 K) | activity coefficient (348.15 K) | activity coefficient (358.15 K) | activity coefficient (368.15 K) | activity coefficient (378.15 K) | activity coefficient (388.15 K) | activity coefficient (398.15 K) | activity coefficient (408.15 K)
CCCCCC [hexane] + CC(O)C(=O)[O-].CC[N+]1(C)CCCC1 | 135 ± 12 | 125 ± 11 | 114 ± 10 | 107 ± 9 | 99.9 ± 8.7 | 94.6 ± 8.2 | 88.7 ± 7.7 | – | – | – | –
CO [methanol] + CC(O)C(=O)[O-].CC[N+]1(C)CCCC1 | – | – | – | – | – | 0.086 ± 0.03 | 0.095 ± 0.03 | 0.105 ± 0.03 | 0.116 ± 0.03 | 0.125 ± 0.03 | 0.137 ± 0.029
CCOCC [diethyl ether] + CC(O)C(=O)[O-].CC[N+]1(C)CCCC1 | 15.8 ± 1.4 | 15.6 ± 1.3 | 15.5 ± 1.3 | 15.1 ± 1.3 | 15 ± 1.3 | 15.1 ± 1.3 | 14.9 ± 1.3 | – | – | – | –
C=CCCCCC [1-heptene] + CC(O)C(=O)[O-].CC[N+]1(C)CCCC1 | 88.8 ± 7.7 | 83.8 ± 7.3 | 78.7 ± 6.8 | 75.2 ± 6.5 | 71.9 ± 6.2 | 68.8 ± 6 | 66.4 ± 5.7 | – | – | – | –
CC#N [acetonitrile] + CC(O)C(=O)[O-].CC[N+]1(C)CCCC1 | – | 0.773 ± 0.065 | 0.808 ± 0.068 | 0.844 ± 0.07 | 0.88 ± 0.07 | 0.915 ± 0.076 | 0.962 ± 0.079 | – | – | – | –
CCC(=O)OC [methyl propanoate] + CC(O)C(=O)[O-].CC[N+]1(C)CCCC1 | – | 4.71 ± 0.41 | 4.79 ± 0.41 | 4.88 ± 0.42 | 4.97 ± 0.43 | 5.06 ± 0.44 | 5.22 ± 0.45 | 5.32 ± 0.46 | – | – | –
CCC(C)CC [3-methylpentane] + CC(O)C(=O)[O-].CC[N+]1(C)CCCC1 | 122 ± 11 | 111 ± 10 | 102 ± 9 | 94.5 ± 8.2 | 88.7 ± 7.7 | 83.5 ± 7.2 | 78.4 ± 6.8 | – | – | – | –
CCCCCCCCCC [decane] + CC(O)C(=O)[O-].CC[N+]1(C)CCCC1 | 787 ± 68 | 725 ± 63 | 651 ± 57 | 597 ± 52 | 542 ± 47 | 496 ± 43 | 456 ± 40 | – | – | – | –
C1COCCO1 [1,4-dioxane] + CC(O)C(=O)[O-].CC[N+]1(C)CCCC1 | – | 2.25 ± 0.19 | 2.33 ± 0.2 | 2.4 ± 0.21 | 2.48 ± 0.21 | 2.55 ± 0.22 | 2.65 ± 0.23 | – | – | – | –
c1ccsc1 [thiophene] + CC(O)C(=O)[O-].CC[N+]1(C)CCCC1 | – | 1.29 ± 0.11 | 1.38 ± 0.12 | 1.47 ± 0.12 | 1.56 ± 0.13 | 1.64 ± 0.14 | 1.75 ± 0.15 | – | – | – | –
C1CCCC1 [cyclopentane] + CC(O)C(=O)[O-].CC[N+]1(C)CCCC1 | 31.7 ± 2.7 | 29.7 ± 2.6 | 28.2 ± 2.4 | 26.9 ± 2.3 | 25.7 ± 2.2 | 24.7 ± 2.1 | 23.5 ± 2 | – | – | – | –
CC(C)=O [acetone] + CC(O)C(=O)[O-].CC[N+]1(C)CCCC1 | – | 1.93 ± 0.17 | 1.97 ± 0.17 | 2.03 ± 0.18 | 2.08 ± 0.18 | 2.14 ± 0.18 | 2.21 ± 0.19 | – | – | – | –
CCc1ccccc1 [ethylbenzene] + CC(O)C(=O)[O-].CC[N+]1(C)CCCC1 | – | 9.27 ± 0.8 | 9.36 ± 0.81 | 9.45 ± 0.82 | 9.58 ± 0.83 | 9.68 ± 0.84 | 9.86 ± 0.85 | – | – | – | –
